Data set [1] relates to cones. The experiment in a line: Quantification of cone survival in PDE-β−/− mice (cone-lacZ staining of retinal flat mounts). The class given is in vivo. The conditions noted are these: for cone survival after 4 weeks of treatment: PW7, insulin daily i.p. from P21, streptozotocin single i.p. injection at P21, vs uninjected control; for cone survival after 7 weeks of treatment: PW10, treatment from PW3, vs untreated. As to the method: (§1) Rapamycin, Streptozotocin and Insulin treatments were performed as follows. Rapamycin was diluted to 10 mg/ml in ethanol. The stock was diluted to 0.015 mg/ml in drinking water over a period of 2 weeks. A single intraperitoneal injection of 150 μl (12 mg/ml in 0.1M citric acid, ph4.5) of Streptozotocin was injected at postnatal day (P) 21. Insulin was injected intraperitoneally daily starting at P21. The concentration was increased weekly such that the first week, 10 U/kg body weight, the second 15 U/kg, the third 20 U/kg and fourth 30 U/kg body weight, were injected. In the treatment that lasted 7 weeks 30 U/kg body weight were injected for the remaining 3 weeks. Blood glucose levels were measured by collecting a drop of blood from the tail directly onto a test strip from TrueTrack smart system (CVS pharmacy). Eye bleeds were avoided due to the fact that cell survival in the retina was being assayed.
Quantification of cone survival was performed as follows. The colors of the bright light image were inverted and processed with Imaris software (Bitplane Inc) to calculate the percentage of blue surface area versus the total retinal surface area (see also FIG. 17). A minimum of 8 retinae per treatment, and for the control, were analyzed. P-values were calculated by the student's t-test.

The subject of another data set is p*-mTOR. The experiment in a line: Retinal explant culture, p*-mTOR staining. The class given is cell-based, mice. The conditions noted are these: wild type retinal explants, 4 hours culture, media with or without glucose. As to the method: Retinal explant cultures: The retina was dissected free from other ocular tissues in DMEM, and then incubated in conditions according to the chart in FIG. 10a. Regular DMEM was at 4.5 g/L glucose, low glucose was at 1 g/L, leucine was added at 200 μM and FCS at 10%. Incubation was performed for 4 h and the retinae were fixed and processed for antibody staining as described below.
Whole mount and section antibody staining were performed as previously (Punzo, C. & Cepko, C. L. (2008) Dev Dyn 237, 1034-42) described with the following modifications. Antibody staining for LAMP-2: Triton was replaced with 0.01% Saponin. Antibody staining for p*-mTOR and p*-S6: PBS was replaced by TBS in every step of the procedure. […] Time points analyzed for the rod and cone death kinetics (P: postnatal day; PW: postnatal week): PDE-β−/−: P10-P20 daily, PW3-10 weekly, PW 12, PW15, PW18, PW45; PDE-γ-KO: P10-P20 daily, PW3-PW10 weekly, PW15, PW25, PW45; Rho-KO: PW4-PW8 weekly, PW10, PW11, PW17, PW20, PW25, PW27, PW31, PW34, PW37, PW45, PW55, PW80; P23H: PW5, PW10, PW16, PW25, PW30, PW35, PW40, PW65, PW70, PW75, PW80, PW85.

The nature of data set [2]: Behavioral assays (open field and step tests) in rd1 mutant mice. In kind it is in vivo, mouse. The conditions noted are these: infected rd1 animals. The text has this:
FIG. 23 is a graph depicting the open field and step tests performed on the rd1 mutant mice in which the AAV vector was introduced.
This observation also confirms that outer segment shortening was due to insufficient glucose.

Data set [3] concerns cones. The experiment in a line: AAV2/5 gluconeogenesis vector tested in vivo in the rd1 mutant mouse, cone survival and morphology.
A further data set deals with HEK 293 cells. The experiment in a line: Expression of Fbp-1, Pck-1 and Pcx from the AAV vector (PCR, Western blot in HEK 293 cells). In kind it is cell-based. As to the method:
FIGS. 22A and B depict the mRNA expression and protein expression of gluconeogenesis genes. […] Gapdh is used as a loading control and water is used as a negative control.
Two ways were used to supply cells with more glucose. One was to increase intracellular glucose levels by providing cones with the means to synthesize their own glucose. Glucose synthesis, called gluconeogenesis, is carried out primarily in the liver, and to a limited extent in kidney and muscle. One might consider that the enzymes required for glucose synthesis could be those that break down glucose, during the process of glycolysis. However, some of the steps in glycolysis are energy producing and thus to reverse them requires a different process. Three enzymes must be supplied to allow the glucose to be synthesized, utilizing pyruvate or lactate as a starting point, and utilizing ATP and GTP to go uphill energetically in the synthesis. The first energy requiring step is catalyzed by Pcx (Pcx: Pyruvate Carboxylase) and utilizes ATP. A subsequent energy requiring step is catalyzed by Pck1: Phosphoenolpyruvate carboxykinase) and requires GTP. […] The endogenous expression of Fbp1, PCk1, and Pcx and the expression Fbp1, PCk1, and Pcx in the AAV vector (“construct”) was analyzed by PCR analysis (FIG. 22A) and Western blot analysis (FIG. 22B).
Background: Immunoblotting shows a protein as a band on a membrane.

The subject of another data set is HIF-1α. The experiment in a line: Immunofluorescent staining for HIF-1α in cones of PDE-β−/− mice. In kind it is in vivo. The conditions noted are these: PDE-β−/− mice treated for 4 weeks with insulin. As to the method:
as §1, with “Eye bleeds were avoided due to the fact that cell survival in the retina was being assayed.” left out
Whole mount and section antibody staining were performed as previously (Punzo, C. & Cepko, C. L. (2008) Dev Dyn 237, 1034-42) described with the following modifications. […] Time points analyzed for the rod and cone death kinetics (P: postnatal day; PW: postnatal week): PDE-β−/−: P10-P20 daily, PW3-10 weekly, PW 12, PW15, PW18, PW45; PDE-γ-KO: P10-P20 daily, PW3-PW10 weekly, PW15, PW25, PW45; Rho-KO: PW4-PW8 weekly, PW10, PW11, PW17, PW20, PW25, PW27, PW31, PW34, PW37, PW45, PW55, PW80; P23H: PW5, PW10, PW16, PW25, PW30, PW35, PW40, PW65, PW70, PW75, PW80, PW85.

The subject of the next data set is photoreceptor. The conditions noted are these: cited from earlier work.

Entries after “also recorded” stand apart in the source; their conditions may differ.

`CN(N=O)C(=O)N[C@H]1C(O)O[C@H](CO)[C@@H](O)[C@@H]1O` (mixture of isomers) [streptozotocin]: in the data set with cones [1], the “cone survival after 4 weeks of treatment” value is on record as “decrease in cone survival” and the “cone survival after 7 weeks of treatment” value is given as “no significant difference in cone survival”.

Take `O=C[C@H](O)[C@@H](O)[C@H](O)[C@H](O)CO` [glucose]: in the data set with p*-mTOR, the “dorsal p*-mTOR in cones” value is “abolished in the absence of glucose; also recorded: only detected when glucose was present”.

Consider “CMV promotor-Pcx-IRES-Fbp1-IRES-Pck1: AAV 2/5 virus carrying Pcx, Fbp1 and Pck1 on one transcript under the CMV promoter with IRES elements”, for which the “vision in two behavioral assays” value in data set [2] is recorded as “functional vision”. Further, the “morphology of the cone outer segments” value in the data set on cones [3] is “remarkably similar to that of normal cones”. For the same molecule, the cone survival result with cones [3] (relative to controls) is “additional cone survival relative to controls”. For the same molecule, in the data set on HEK 293 cells (PCR analysis, Gapdh loading control), the “mRNA expression of Fbp-1, Pck-1 and Pcx” value is “expresses these genes”. The “protein expression of Fbp-1, Pck-1 and Pcx” value with HEK 293 cells (Western blot, transfected HEK 293 cells vs retina and HEK 293 control samples) is given as “upregulated”.

As for insulin, in the data set with cones [1], the “cone survival after 4 weeks of treatment” value is “improved cone survival; also recorded: prolonged cone survival” and the “cone survival after 7 weeks of treatment” value is “did not show any significant improvement of cone survival; also recorded: no significant difference in cone survival”. The “upregulation of HIF-1α in cones” value in the data set on HIF-1α is “did not show the upregulation of HIF-1α; also recorded: prevented the upregulation of HIF-1α”.

B1: proinsulin (protein, UniProt P01326 25-110, looked up)
pro-form: FVKQHLCGSHLVEALYLVCGERGFFYTPMSRREVEDPQVAQLELGGGPGAGDLQTLALEVAQQKRGIVDQCCTSICSLYQLENYCN
modifications: pro-form
As to B1, in the data set on photoreceptor (constitutive expression, rd10 mouse model of RP), the photoreceptor death entry is “delays photoreceptor death, both of rods and cones”. In addition, the hyperglycemia result in the data set on photoreceptor (mice treated with proinsulin) was “did not develop hyperglycemia”.

(Values after patent US9610363B2, “Methods for inhibiting starvation of a cell” (PRESIDENT AND FELLOWS OF HARVARD COLLEGE, priority 2009, dated 2017).)
